Each molecule was assayed on androgen receptor (AR) (assay: PSA (6.1 kb)-luciferase reporter assay in LNCaP cells induced with R1881). Conditions: Homo sapiens; LNCaP cells transiently transfected with PSA (6.1 kb)-luciferase; 1 h pre-treatment with compound, then R1881 (1 nM) for 24 h; value with standard error.
Type: cell-based
Method: LNCaP cells were transiently transfected with PSA (6.1 kb)-luciferase for 24 h prior to pre-treatment with compounds of the invention (e.g., compounds 1a, 9, 13) ranging in concentration from 62.5 ng/ml to 1.5 ug/ml for 1 hour before the addition of vehicle, or synthetic androgen, R1881 (1 nM) to induce luciferase production. After 24 h of incubation with R1881, the cells were harvested, and relative luciferase activities were determined. To determine the IC50, treatments were normalized to the predicted maximal activity induction (in the absence of test compounds, vehicle only).

Row | SMILES | IC50 [µM]
1 | CC(C)(c1ccc(OC[C@H](O)CCl)cc1)c1ccc(OC[C@H](O)Cn2nnc(CO)c2I)cc1 [Compound 1a, (S)-1-chloro-3-(4-(2-(4-((R)-2-hydroxy-3-(4-(hydroxymethyl)-5-iodo-1H-1,2,3-triazol-1-yl)propoxy)phenyl)propan-2-yl)phenoxy)propan-2-ol] | 3.23
2 | CC(C)(c1ccc(OCC(O)CCl)cc1)c1ccc(OCC(O)CN2CCOCC2)cc1 (stereo not drawn) [Compound 13, 1-chloro-3-(4-(2-(4-(2-hydroxy-3-morpholinopropoxy)phenyl)propan-2-yl)phenoxy)propan-2-ol] | 12.8
3 | CC(C)(c1ccc(OCC(O)CCl)cc1)c1ccc(OCC(O)Cn2ccnc2)cc1 (stereo not drawn) [Compound 9, 1-chloro-3-(4-(2-(4-(2-hydroxy-3-(1H-imidazol-1-yl)propoxy)phenyl)propan-2-yl)phenoxy)propan-2-ol] | 8.45
